According to US7812039B2, “Drugs for chronic pains” (Nicox S.A., priority 2001, dated 2010):

How the values were obtained:
[1] = system: Human cells of the umbilical vein; experiment: NO generation from NO-donors with endothelial cells, chemiluminescence; type: cell-based; conditions: incubation of 100 μM, 5 minutes
Procedure: (§1) The test relates to the nitric oxide generation from the NO-donors, for example nitroglycerin, niocorandil, nitroprussiate, etc., in the presence of endothelial cells (method a) or platelets (method b). • a) Endothelial Cells • Human cells of the umbilical vein, cultured on plates, having a 10^3 density cells/well were incubated for 5 minutes with scalar concentrations of NO-donor (1-100 μg/ml). The incubation medium (physiologic solution, for example Tyrode) was then analyzed to determine the capability to generate NO of the compound under test, by means of: • 1) nitric oxide detection by chemiluminescence; • 2) cGMP determination (cyclic GMP n° 2715 of the above mentioned Merck). • For the analysis by chemiluminescence, an amount equal to 100 μl was injected in the reaction chamber of a chemiluminescence analyzer containing glacial acetic acid and potassium iodide. The nitrites/nitrates present in the medium, under these conditions are converted into NO which is then detected after reaction with ozone, which produces light. In the equipments which measure the chemiluminescence, the luminescence produced is directly proportional to the generated NO levels and can be measured by a suitable photomultiplying unit of a chemiluminescence analyzer. The photomultiplier converts the incident light in electric voltage, which is quantitatively recorded. […]

Washed human platelets = experiment: NO generation from NO-donors with platelets, chemiluminescence; type: cell-based; conditions: incubation of 100 μM, 5 minutes
Procedure: as §1

O=C(NCCO[N+](=O)[O-])c1cccnc1 [nicorandil]
amount of NO generated [1]: about 10 μM
amount of NO generated (Washed human platelets): 35 µM
